Measurements published in US20210147343A1 (priority 2018, published 2021).
Where two headings read alike, the source gives them in different places.

How the values were obtained:
mu opioid receptor (MOR) [1] = target: T1, mu opioid receptor (MOR) (Homo sapiens, UniProt P35372); test: MOR cAMP antagonist assay; format: cell-based; set-up: host or cells: CHO-K1
Source text: MOR cAMP Antagonist Assay

[2] = target: T2, kappa opioid receptor (KOR) (Homo sapiens, UniProt P41145); test: cell-based; conditions: kOR cAMP IC50, CHO-K1 cells expressing kOR; after activation with dynorphin B
T2 construct: host or cells: CHO-K1
T2 sequence (P41145 whole entry): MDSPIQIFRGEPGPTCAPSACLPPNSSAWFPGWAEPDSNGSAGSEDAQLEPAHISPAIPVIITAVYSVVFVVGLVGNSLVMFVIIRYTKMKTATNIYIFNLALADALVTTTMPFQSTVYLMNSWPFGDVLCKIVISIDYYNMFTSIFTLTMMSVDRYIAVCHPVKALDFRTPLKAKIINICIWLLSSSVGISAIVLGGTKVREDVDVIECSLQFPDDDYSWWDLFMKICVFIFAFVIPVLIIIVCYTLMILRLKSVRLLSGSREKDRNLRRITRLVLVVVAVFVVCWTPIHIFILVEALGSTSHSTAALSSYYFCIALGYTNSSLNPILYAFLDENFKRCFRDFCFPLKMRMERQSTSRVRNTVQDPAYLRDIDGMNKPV
Source text: KOR cAMP Antagonist Assay

mu opioid receptor (MOR) [3] = target: T1, mu opioid receptor (MOR); test: MOR cAMP agonist assay
mu opioid receptor (MOR) [4] = target: T1, mu opioid receptor (MOR); test: MOR GTPγS agonist assay; format: biochemical; set-up: host or cells: CHO-K1
Source text: Membranes obtained from the stable cell lines over-expressing MOR were subjected to GTPγS assay using SPA beads (Perkin Elmer, Cat #RPNQ0001).

Male Sprague-Dawley rats = test: Hot plate assay; format: in vivo; conditions: rat, SC
Experimental: Male Sprague-Dawley rats weighing 275-300 grams were used in the study, n=8-10 per group. Animals are injected SC with 0.9% normal saline solution. At 15, 45, and 80 min after the injection, animals were placed onto a hotplate set to 52 degrees centigrade, and baseline latency is recorded (baseline latency=average time to 2nd withdrawal response consisting of either a lick of a rear paw, shaking a rear paw, backwards walking or jumping). A day later animals were injected SC with test compounds either in vehicle solution, or with a mix of compounds in solution. Next the test latency was recorded (test latency=time to withdrawal on the hotplate measured at 15, 45, 80, 120, 180 and 240 min using the procedure described). Times were then converted to % maximum possible effect (% MPE)=(test_latecy−baseline_latency)/(30 sec-baseline_latency); where 30 sec is the cutoff where the animal is removed if no response ifs observed as it is the time point at which injury is expected to occur.

[5] = membranes of CHO cells over-expressing MOR, SPA beads, read-out: MOR GTPγS EC50

T1 sequence (P35372 whole entry): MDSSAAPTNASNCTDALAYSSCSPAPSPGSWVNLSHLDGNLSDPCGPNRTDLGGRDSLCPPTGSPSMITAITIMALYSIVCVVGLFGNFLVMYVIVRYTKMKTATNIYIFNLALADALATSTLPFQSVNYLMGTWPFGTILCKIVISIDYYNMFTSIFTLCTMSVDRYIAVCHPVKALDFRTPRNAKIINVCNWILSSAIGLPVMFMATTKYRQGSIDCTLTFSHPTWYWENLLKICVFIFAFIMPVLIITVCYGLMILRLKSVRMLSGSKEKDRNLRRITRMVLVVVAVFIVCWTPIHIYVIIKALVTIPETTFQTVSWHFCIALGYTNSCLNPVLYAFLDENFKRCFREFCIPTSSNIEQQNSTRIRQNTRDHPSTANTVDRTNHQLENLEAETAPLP

Compound | IC50 (mu opioid receptor (MOR) [1]) [nM] | IC50 [2] [nM] | EC50 (mu opioid receptor (MOR) [3]) [nM] | also measured
CN(C)[C@H](CNC(=O)[C@@H]1C[C@]1(C)c1ccccc1)Cc1ccc(O)c(Cl)c1 [Compound B-55, (1R,2S)—N—((S)-3-(3-chloro-4-hydroxyphenyl)-2-(dimethylamino)-propyl)-2-methyl-2-phenylcyclopropane-1-carboxamide] | < 100 | < 100 |  | 
Cc1cc(O)cc(C)c1C[C@@H](CNC(=O)[C@@H]1C[C@]1(C)c1ccccc1)N(C)C [Compound B-47, (1R,2S)—N—((S)-2-(dimethylamino)-3-(4-hydroxy-2,6-dimethylphenyl)-propyl)-2-methyl-2-phenylcyclopropane-1-carboxamide] | < 100 |  | < 100 | 
CNC(=O)c1ccc(C[C@@H](CNC(=O)c2ccc(C)cc2C)N(C)C)cc1F [Compound C-40] | < 100 | > 1000 |  | EC50 (mu opioid receptor (MOR) [4]; [5]): < 100 nM
Cc1cc(C[C@@H](CNC(=O)[C@@H]2C[C@]2(C)c2ccccc2)N(C)C)cc(C)c1O [Compound B-36, (1R,2S)—N—((S)-2-(dimethylamino)-3-(4-hydroxy-3,5-dimethylphenyl)propyl)-2-methyl-2-phenylcyclopropane-1-carboxamide] | < 100 | < 100 |  | 
CN(C)[C@H](CNC(=O)c1ccccc1-c1ccccc1)Cc1ccc(O)cc1 [Compound C-66, (S)—N-(2-(dimethylamino)-3-(4-hydroxyphenyl)propyl)-[1,1′-biphenyl]-2-carboxamide] |  | 100 to 1000 |  | IC50 (mu opioid receptor (MOR) [1]; CHO-K1 cells expressing mOR, after activation with DAMGO at the EC80, read-out: MOR cAMP IC50): > 1000 nM; EC50 (mu opioid receptor (MOR) [4]): > 1000 nM
Cc1cc(C[C@@H](CNC(=O)[C@@H]2C[C@]2(C)c2ccccc2)N(C)C)ccc1O [Compound B-42, (1R,2S)—N—((S)-2-(dimethylamino)-3-(4-hydroxy-3-methylphenyl)propyl)-2-methyl-2-phenylcyclopropane-1-carboxamide] | < 100 | 100 to 1000 | < 100 | 
CN(C)[C@H](CNC(=O)[C@@H]1C[C@]1(C)c1ccccc1)Cc1ccc(O)cc1F [Compound B-31, (1R,2S)—N—((S)-2-(dimethylamino)-3-(2-fluoro-4-hydroxyphenyl)propyl)-2-methyl-2-phenylcyclopropane-1-carboxamide] | < 100 | < 100 | < 100 | 
CCN(CC)[C@H](CNC(=O)[C@@H]1C[C@]1(C)c1ccccc1)Cc1ccc(O)c(C)c1 [Compound B-41, (1R,2S)—N—((S)-2-(diethylamino)-3-(4-hydroxy-3-methylphenyl)propyl)-2-methyl-2-phenylcyclopropane-1-carboxamide] | 100 to 1000 | 100 to 1000 | < 100 | 
CN(C)[C@H](CNC(=O)c1cccc(Cl)c1)Cc1ccc(O)cc1Cl [Compound C-22] | > 1000 | 100 to 1000 |  | EC50 (mu opioid receptor (MOR) [4]; [5]): < 100 nM
Cc1cc(O)cc(C)c1C[C@@H](CNC(=O)c1ccc(Cl)c(Cl)c1)N(C)C [Compound C-24, (S)-3,4-dichloro-N-(2-(dimethylamino)-3-(4-hydroxy-2,6-dimethylphenyl)propyl)benzamide] | < 100 | < 100 |  | EC50 (mu opioid receptor (MOR) [4]; [5]): < 100 nM
Cc1cc(O)ccc1C[C@@H](CNC(=O)[C@@H]1C[C@]1(C)c1ccccc1)N(C)C [Compound B-48, (1R,2S)—N—((S)-2-(dimethylamino)-3-(4-hydroxy-2-methylphenyl)propyl)-2-methyl-2-phenylcyclopropane-1-carboxamide] | < 100 | < 100 | > 1000 | 
CN(C)[C@H](CNC(=O)[C@@H]1C[C@]1(C)c1ccccc1)Cc1ccc(O)c(F)c1 [Compound B-30, (1R,2S)—N—((S)-2-(dimethylamino)-3-(3-fluoro-4-hydroxyphenyl)propyl)-2-methyl-2-phenylcyclopropane-1-carboxamide] | < 100 | < 100 |  | 
CN(C)[C@H](CNC(=O)[C@@H]1C[C@]1(C)c1ccccc1)Cc1ccc(O)cc1Cl [Compound B-15, (1R,2S)—N—((S)-3-(2-chloro-4-hydroxyphenyl)-2-(dimethylamino)-propyl)-2-methyl-2-phenylcyclopropane-1-carboxamide] |  | > 1000 | > 1000 | effect on the analgesic activity of agonist Compound B-56 in the hotplate test (Male Sprague-Dawley rats; co-dosed with Compound B-56, FIG. 1): blocks; effect on its own in the hotplate test (Male Sprague-Dawley rats; dosed alone, FIG. 1): no effect
Cc1cc(O)ccc1C[C@@H](CNC(=O)[C@@H]1C[C@@]1(C)c1ccccc1)N(C)C [Compound B-56, (1R,2R)—N—((S)-2-(dimethylamino)-3-(4-hydroxy-2-methylphenyl)propyl)-2-methyl-2-phenylcyclopropane-1-carboxamide] |  | < 100 | < 100 | analgesic activity in the hotplate test (time to exhibit a withdrawal response) (Male Sprague-Dawley rats; hotplate 52 degrees centigrade, FIG. 1): analgesic
